The source of these data is patent publication US8796253B2, “Heteroaryl substituted pyrazole derivatives useful for treating hyper-proliferative disorders and diseases associated with angiogenesis” (Bayer Intellectual Property GmbH, priority 2007, dated 2014).

As usually defined, the IC50 is the point on the concentration scale where inhibition reaches its midpoint.

The assay deals with HCT-116 cells stably transfected with a Luciferase reporter gene under the control of HIF-responsive element. Kind of assay: HIF-Luciferase Assay. It counts as cell-based. The following applies: Homo sapiens, HCT-116, HIF-Luciferase Assay, HCT-116 reporter cells, overnight at 1% oxygen. As for the experimental part:
HCT-116 cells stably transfected with a Luciferase reporter gene under the control of HIF-responsive element were plated in white 96- or 384-well plates at 30,000 or 5,000 cells/well, respectively, in 50 μL/well media (RPMI with 10% fetal bovine serum and 100 μg/mL Hygromycin). Cells were incubated overnight at 37° C. in a humidified incubator containing 5% CO2 under normal oxygen. The next day test compounds were added to the wells at various concentrations (0-10 μM, 0.1% final DMSO concentration) and placed in a hypoxic chamber overnight at 1% oxygen. Following the exposure to hypoxic conditions, 50 μL/well of Bright Glo reagent (Promega, Wisconsin, USA) was added to the wells and luminescence was measured after 5 min. Cells incubated under normal oxygen levels were used as background control. […] Compounds that have IC50 values between 1 μM and 10 μM include those of Examples 8, 16, 38, 39, 40, 41, 42, 43, 47, 48, 53, 54, 56, 57, 66, 69, and 72.

Structures are written as SMILES.

The molecule `Cc1ccc(Cn2nc(-c3nc4ccccc4[nH]3)cc2C)cc1` [Example 38, 2-[5-methyl-1-(4-methylbenzyl)-1H-pyrazol-3-yl]-1H-benzimidazole] displayed a concentration for half-maximal inhibition (IC50) (potency groups) of 1000 to 10000 nM. Turning to `Cc1ccc(Cn2nc(-c3nc4ccc(-c5ccc(Cl)cc5)cc4[nH]3)cc2C)cc1` [Example 64, 6-(4-chlorophenyl)-2-[5-methyl-1-(4-methylbenzyl)-1H-pyrazol-3-yl]-1H-benzimidazole], the IC50 by setting is: (individual values) 3 nM; (potency groups) ≤ 1000 nM.

In the case of `Cc1ccc(Cn2nc(-c3nc4cc5c(cc4[nH]3)OC(F)(F)O5)cc2C)cc1` [Example 55, 2,2-difluoro-6-[5-methyl-1-(4-methylbenzyl)-1H-pyrazol-3-yl]-5H-[1,3]dioxolo[4,5-f]benzimidazole], the IC50 (potency groups) is ≤ 1000 nM.

Turning to `Cc1ccc(Cn2nc(-c3nc(-c4ccc(OC(C)C)cc4)no3)cc2C)cc1` [Example 20, 3-(4-Isopropoxyphenyl)-5-[5-methyl-1-(4-methylbenzyl)-1H-pyrazol-3-yl]-1,2,4-oxadiazole], where the note is “potency groups”, the IC50 was ≤ 1000 nM.

Under “potency groups”, `Cc1ccc(Cn2nc(-c3nc4cc(Cl)c(F)cc4[nH]3)cc2C)cc1` [Example 56, 5-chloro-6-fluoro-2-[5-methyl-1-(4-methylbenzyl)-1H-pyrazol-3-yl]-1H-benzimidazole] gave an IC50 of 1000 to 10000 nM. As for `Cc1ccc(Cn2nc(-c3nc4ccc(-c5cccc(Cl)c5)cc4[nH]3)cc2C)cc1` [Example 63, 6-(3-chlorophenyl)-2-[5-methyl-1-(4-methylbenzyl)-1H-pyrazol-3-yl]-1H-benzimidazole], the IC50 (potency groups) was ≤ 1000 nM. As to `Cc1ccc(Cn2nc(-c3nc4cc(-c5ccccc5F)ccc4o3)cc2C)cc1` [Example 35, 5-(2-fluorophenyl)-2-[5-methyl-1-(4-methylbenzyl)-1H-pyrazol-3-yl]-1,3-benzoxazole], the IC50 (potency groups) was ≤ 1000 nM.

Turning to `Cc1ccc(Cn2nc(-c3nc4cc5cn[nH]c5cc4[nH]3)cc2C)cc1` [Example 48, 6-[5-methyl-1-(4-methylbenzyl)-1H-pyrazol-3-yl]-1,7-dihydroimidazo[4,5-f]indazole], the IC50 (potency groups) lay within 1000 to 10000 nM. In the case of `Cc1ccc(Cn2nc(C3=NC(Cc4ccc(Cl)cc4)CO3)cc2C)cc1` (stereo not shown) [Example 72, 4-(4-chlorobenzyl)-2-[5-methyl-1-(4-methylbenzyl)-1H-pyrazol-3-yl]-4,5-dihydro-1,3-oxazole], the IC50 (potency groups) was in the range of 1000 to 10000 nM. `Cc1ccc(Cn2nc(-c3nc4ccc(C(F)(F)F)cc4[nH]3)cc2C)cc1` [Example 44, 2-[5-methyl-1-(4-methylbenzyl)-1H-pyrazol-3-yl]-6-(trifluoromethyl)-1H-benzimidazole]: the IC50 (potency groups) is ≤ 1000 nM. As to `Cc1ccc(Cn2nc(-c3nc(-c4ccc(OCc5ccc(Cl)cc5)cc4)no3)cc2C)cc1` [Example 2, 3-{4-[(4-chlorobenzyl)oxy]phenyl}-5-[5-methyl-1-(4-methylbenzyl)-1H-pyrazol-3-yl]-1,2,4-oxadiazole], the IC50 (potency groups) was ≤ 1000 nM. `Cc1ccc(Cn2nc(-c3nc(-c4ccc(F)c(Br)c4)no3)cc2C)cc1` [Example 15, 3-(3-bromo-4-fluorophenyl)-5-[5-methyl-1-(4-methylbenzyl)-1H-pyrazol-3-yl]-1,2,4-oxadiazole]: under “group >10, unit inferred”, the half-maximal inhibitory concentration (IC50) is > 10000 nM. In the case of `Cc1ccc(Cn2nc(-c3nc(-c4ccc(Br)cc4)co3)cc2C)cc1` [Example 75, 4-(4-bromophenyl)-2-[5-methyl-1-(4-methylbenzyl)-1H-pyrazol-3-yl]-1,3-oxazole], the IC50 (potency groups) was ≤ 1000 nM.

For `Cc1ccc(Cn2nc(-c3nc(-c4ccc(C5CCCCC5)cc4)c[nH]3)cc2C)cc1` [Example 68, 3-[4-(4-cyclohexylphenyl)-1H-imidazol-2-yl]-5-methyl-1-(4-methylbenzyl)-1H-pyrazole], the IC50 is 6 nM (individual values) and ≤ 1000 nM (potency groups). In the case of `Cc1ccc(Cn2nc(-c3nc(-c4ccc(-c5ccc(OC(F)(F)F)cc5)cc4)no3)cc2C)cc1` [Example 5, 5-[5-methyl-1-(4-methylbenzyl)-1H-pyrazol-3-yl]-3-[4′-(trifluoromethoxy)biphenyl-4-yl]-1,2,4-oxadiazole], the IC50 (potency groups) is ≤ 1000 nM.

In the case of `Cc1ccc(Cn2nc(-c3nc(-c4ccc(N5CCCCC5)cc4)no3)cc2C)cc1` [Example 12, 1-(4-{5-[5-methyl-1-(4-methylbenzyl)-1H-pyrazol-3-yl]-1,2,4-oxadiazol-3-yl}phenyl)piperidine], the IC50 (potency groups) was ≤ 1000 nM. In turn, `Cc1ccc(Cn2nc(-c3nc4ccncc4[nH]3)cc2C)cc1` [Example 42, 2-[5-methyl-1-(4-methylbenzyl)-1H-pyrazol-3-yl]-3H-imidazo[4,5-c]pyridine] yielded an IC50 (potency groups) of 1000 to 10000 nM. As to `Cc1ccc(Cn2nc(C3=NC(c4ccc(C(C)(C)C)cc4)CO3)cc2C)cc1` (stereo not shown) [Example 70, 4-(4-tert-butylphenyl)-2-[5-methyl-1-(4-methylbenzyl)-1H-pyrazol-3-yl]-4,5-dihydro-1,3-oxazole], the concentration for half-maximal inhibition (IC50) (group >10, unit inferred) was > 10000 nM. On to `Cc1ccc(Cn2nc(-c3nc4ccc(C)cc4[nH]3)cc2C)cc1` [Example 39, 6-methyl-2-[5-methyl-1-(4-methylbenzyl)-1H-pyrazol-3-yl]-1H-benzimidazole], for which the IC50 (potency groups) is 1000 to 10000 nM.

In the case of `Cc1ccc(Cn2nc(-c3nc4ccc(-c5ccccc5Cl)cc4[nH]3)cc2C)cc1` [Example 62, 6-(2-chlorophenyl)-2-[5-methyl-1-(4-methylbenzyl)-1H-pyrazol-3-yl]-1H-benzimidazole], the IC50 (potency groups) was ≤ 1000 nM. For the setting “individual values”, `Cc1ccc(Cn2nc(-c3nc(-c4ccc(SC(F)(F)F)cc4)no3)cc2C)cc1` [Example 105, 5-[5-methyl-1-(4-methylbenzyl)-1H-pyrazol-3-yl]-3-4-[(trifluoromethyl)sulfanyl]phenyl-1,2,4-oxadiazole] returned a half-inhibitory concentration (IC50) of 30 nM.

In the case of `Cc1ccc(Cn2nc(-c3nc4ccc(-c5ccc(F)cc5)cc4[nH]3)cc2C)cc1` [Example 59, 6-(4-Fluorophenyl)-2-[5-methyl-1-(4-methylbenzyl)-1H-pyrazol-3-yl]-1H-benzimidazole], the IC50 runs as follows: (individual values) 5 nM; (potency groups) ≤ 1000 nM. As to `Cc1ccc(Cn2nc(-c3nc4cc5oc6ccccc6c5cc4[nH]3)cc2C)cc1` [Example 52, 2-[5-methyl-1-(4-methylbenzyl)-1H-pyrazol-3-yl]-1H-[1]benzofuro[2,3-f]benzimidazole], for the setting “potency groups”, the IC50 was ≤ 1000 nM. On to `Cc1ccc(Cn2nc(-c3nc4ccc(C(=O)c5ccccc5)cc4[nH]3)cc2C)cc1` [Example 46, {2-[5-methyl-1-(4-methylbenzyl)-1H-pyrazol-3-yl]-1H-benzimidazol-6-yl}(phenyl)methanone], for which the IC50 (potency groups) is ≤ 1000 nM. Still for that read-out and setting: the result for `Cc1ccc(Cn2nc(-c3nc4ccc(C5CCCCC5)cc4[nH]3)cc2C)cc1` [Example 51, 6-cyclohexyl-2-[5-methyl-1-(4-methylbenzyl)-1H-pyrazol-3-yl]-1H-benzimidazole] reads ≤ 1000 nM. Consider `Cc1ccc(Cn2nc(-c3nc(-c4ccc(-c5ccccc5)cc4)c[nH]3)cc2C)cc1` [Example 67, 3-(4-biphenyl-4-yl-1H-imidazol-2-yl)-5-methyl-1-(4-methylbenzyl)-1H-pyrazole], for which the IC50 runs as follows: (individual values) 8 nM; (potency groups) ≤ 1000 nM.

In the case of `Cc1ccc(Cn2nc(-c3nc4c(C)cc(Br)cc4[nH]3)cc2C)cc1` [Example 57, 6-bromo-4-methyl-2-[5-methyl-1-(4-methylbenzyl)-1H-pyrazol-3-yl]-1H-benzimidazole], the half-inhibitory concentration (IC50) (potency groups) lay within 1000 to 10000 nM. On to `Cc1ccc(Cn2nc(-c3nc(-c4ccc(Cn5cccc5)cc4)no3)cc2C)cc1` [Example 140, 5-[5-Methyl-1-(4-methylbenzyl)-1H-pyrazol-3-yl]-3-[4-(1H-pyrrol-1-yl-methyl)phenyl]-1,2,4-oxadiazole], for which the IC50 (individual values) turned out to be 40 nM. In other words, the double-digit nanomolar range. With `Cc1ccc(Cn2nc(-c3nc(-c4ccncc4)no3)cc2C)cc1` [Example 14, 4-{5-[5-Methyl-1-(4-methylbenzyl)-1H-pyrazol-3-yl]-1,2,4-oxadiazol-3-yl}pyridine], the IC50 (potency groups) is ≤ 1000 nM. Regarding `Cc1ccc(Cn2nc(-c3nc(-c4ccc(N5CCCC5=O)cc4)no3)cc2C)cc1` [Example 24, 1-(4-{5-[5-Methyl-1-(4-methylbenzyl)-1H-pyrazol-3-yl]-1,2,4-oxadiazol-3-yl}phenyl)pyrrolidin-2-one], the concentration for half-maximal inhibition (IC50) runs as follows: (individual values) 80 nM; (potency groups) ≤ 1000 nM. For `Cc1ccc(Cn2nc(-c3nc4ccc(Br)cc4[nH]3)cc2C)cc1` [Example 37, 6-Bromo-2-[5-methyl-1-(4-methylbenzyl)-1H-pyrazol-3-yl]-1H-benzimidazole], for the setting “potency groups”, the IC50 is ≤ 1000 nM. Turning to `Cc1ccc(Cn2nc(-c3nc4ccc(-c5ccccc5)cc4[nH]3)cc2C)cc1` [Example 45, 2-[5-methyl-1-(4-methylbenzyl)-1H-pyrazol-3-yl]-6-phenyl-1H-benzimidazole], where the note is “potency groups”, the IC50 was ≤ 1000 nM.

Take `Cc1ccc(Cn2nc(-c3nc4ccc(C(C)(C)C)cc4[nH]3)cc2C)cc1` [Example 43, 6-tert-butyl-2-[5-methyl-1-(4-methylbenzyl)-1H-pyrazol-3-yl]-1H-benzimidazole]: the IC50 (potency groups) was 1000 to 10000 nM.

For `Cc1ccc(Cn2nc(-c3nc(-c4ccccc4)co3)cc2C)cc1` [Example 74, 2-[5-Methyl-1-(4-methylbenzyl)-1H-pyrazol-3-yl]-4-phenyl-1,3-oxazole], the IC50 (potency groups) is ≤ 1000 nM. Take `Cc1ccc(Cn2nc(-c3nc4ccc(OC(F)(F)F)cc4[nH]3)cc2C)cc1` [Example 58, 2-[5-methyl-1-(4-methylbenzyl)-1H-pyrazol-3-yl]-6-(trifluoromethoxy)-1H-benzimidazole]: where the note is “potency groups”, the IC50 is ≤ 1000 nM.
